For 23 compounds, IC50 results are on record in patent publication US20250325552A1, “SUBSTITUTED THIADIAZOLYL DERIVATIVES AS DNA POLYMERASE THETA INHIBITORS” (IDEAYA Biosciences, Inc., priority 2020, published 2025).

Structures are written as SMILES. pIC50: −log10 of the molar value.

This test deals with Polθ theta (1-899) (hPolQ) (Homo sapiens (Human), UniProt O75417). Put plainly: Biological Assay 1: Polθ ATPase activity, NADH oxidation-coupled enzymatic assay (10 nM enzyme, 30 min). Type of test: biochemical. The conditions noted are these: Polθ (1-899) 10 nM, 100 μM ATP, 300 nM dT50 ssDNA; Examples 1 to 268; read-out: ATPase NADH coupling:Standard Screening:hPolQ IC50. Put shortly: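 Polθ (1-899) at 10 nM was preincubated with compound for 15 min at room temperature in 20 mM Tris pH 7.80, 80 mM KCl, 10 mM MgCl2. An equal volume of 100 μM ATP, 300 nM dT50 ssDNA and a PK/LDH–NADH coupling system was then added. A340 was read each minute for 30 min. IC50 came from rate slopes over 10-point series with a four-parameter fit.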
Polθ theta (1-899) (hPolQ), sequence (O75417 1-899): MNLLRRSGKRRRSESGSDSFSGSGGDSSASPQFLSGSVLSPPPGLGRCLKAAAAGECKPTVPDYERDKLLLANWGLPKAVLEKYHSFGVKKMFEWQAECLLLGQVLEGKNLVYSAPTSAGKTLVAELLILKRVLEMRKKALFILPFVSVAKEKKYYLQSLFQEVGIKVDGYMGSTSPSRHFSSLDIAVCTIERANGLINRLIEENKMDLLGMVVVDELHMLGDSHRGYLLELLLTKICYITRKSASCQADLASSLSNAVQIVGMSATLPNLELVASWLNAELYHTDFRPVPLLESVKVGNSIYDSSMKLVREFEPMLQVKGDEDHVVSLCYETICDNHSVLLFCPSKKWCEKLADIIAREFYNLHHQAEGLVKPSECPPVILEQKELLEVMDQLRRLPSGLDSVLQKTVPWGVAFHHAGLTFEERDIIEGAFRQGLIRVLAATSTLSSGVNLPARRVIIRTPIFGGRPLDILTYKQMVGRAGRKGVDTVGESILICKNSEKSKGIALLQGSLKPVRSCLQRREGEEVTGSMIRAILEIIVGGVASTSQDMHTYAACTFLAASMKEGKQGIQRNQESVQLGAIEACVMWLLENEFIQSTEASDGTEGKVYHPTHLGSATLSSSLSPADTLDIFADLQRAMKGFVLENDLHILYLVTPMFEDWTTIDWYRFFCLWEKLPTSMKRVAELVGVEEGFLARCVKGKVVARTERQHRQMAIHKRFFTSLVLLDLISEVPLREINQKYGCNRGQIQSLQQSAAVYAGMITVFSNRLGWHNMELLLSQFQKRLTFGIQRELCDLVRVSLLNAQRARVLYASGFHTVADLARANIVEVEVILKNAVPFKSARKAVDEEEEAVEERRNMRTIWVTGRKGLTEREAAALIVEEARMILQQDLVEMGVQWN
Consider `COc1cccc(F)c1-c1cc(C)ncc1C(=O)Nc1nnc(OCc2ccc(C(C)(C)C#N)cn2)s1` [Example 88, N-(5-((5-(2-cyanopropan-2-yl)pyridin-2-yl)methoxy)-1,3,4-thiadiazol-2-yl)-4-(2-fluoro-6-methoxyphenyl)-6-methylnicotinamide], for which the negative-log IC50 (pIC50) was ≥ 6.70. As to `COc1cnc(Cl)cc1-c1cc(C)ncc1C(=O)Nc1nnc(OCC23CC(C(C)(C)F)(C2)C3)s1` [Example 163, 2′-chloro-N-(5-((3-(2-fluoropropan-2-yl)bicyclo(1.1.1)pentan-1-yl)methoxy)-1,3,4-thiadiazol-2-yl)-5′-methoxy-6-methyl-(4,4′-bipyridine)-3-carboxamide], the pIC50 is ≥ 6.70. With `COc1cnc(Cl)cc1-c1cc(C)ncc1C(=O)Nc1nnc(OC[C@H]2CO[C@H](C)C2)s1` (single isomer, unassigned) [Example 252], the negative-log IC50 (pIC50) is ≥ 6.70. `COc1cnc(Cl)cc1-c1cc(C)ncc1C(=O)Nc1nnc(OC[C@]2(C)CCOC2)s1` (single isomer, unassigned) [Example 160]: the negative logarithm of the IC50 (pIC50) was ≥ 6.70. In the case of `COc1ccc(Cl)cc1-c1cnncc1C(=O)Nc1nnc(OCC23CCC(F)(CC2)CC3)s1` [Example 142, 5-(5-chloro-2-methoxyphenyl)-N-(5-((4-fluorobicyclo(2.2.2)octan-1-yl)methoxy)-1,3,4-thiadiazol-2-yl)pyridazine-4-carboxamide], the pIC50 was ≥ 6.70. With `COc1cccc(F)c1-c1cc(C)ncc1C(=O)Nc1nnc(OCc2ccc(S(C)(=O)=O)cn2)s1` [Example 24, 4-(2-fluoro-6-methoxyphenyl)-6-methyl-N-(5-((5-(methylsulfonyl)pyridin-2-yl)methoxy)-1,3,4-thiadiazol-2-yl)nicotinamide], the negative logarithm of the IC50 (pIC50) is ≥ 6.70.

For the compound `COc1cnc(Cl)cc1-c1cc(C)ncc1C(=O)Nc1nnc(OC[C@H]2C[C@@H]2F)s1` (stereo in doubt) [Example 207, 2′-chloro-N-(5-(((1R,2S)-2-fluorocyclopropyl)methoxy)-1,3,4-thiadiazol-2-yl)-5′-methoxy-6-methyl-(4,4′-bipyridine)-3-carboxamide], the pIC50 was ≥ 6.70. Then `COc1ccccc1-c1cc(C)ncc1C(=O)Nc1nnc(O[C@@H](C)c2ccc(Cl)cn2)s1` [Example 11, (S)—N-(5-(1-(5-chloropyridin-2-yl)ethoxy)-1,3,4-thiadiazol-2-yl)-4-(2-methoxyphenyl)-6-methylnicotinamide], with ≥ 6.70; and `COc1cccc(F)c1-c1cc(C)ncc1C(=O)Nc1nnc(OCC23CC(CO)(C2)C3)s1` [Example 132, 4-(2-fluoro-6-methoxyphenyl)-N-(5-((3-(hydroxymethyl)bicyclo(1.1.1)pentan-1-yl)methoxy)-1,3,4-thiadiazol-2-yl)-6-methylpyridine-3-carboxamide], with ≥ 6.70; and `COc1cccc(F)c1-c1cc2cnc(C)n2cc1C(=O)Nc1nnc(OC[C@H]2CC[C@H](O)CC2)s1` [Example 195, 7-(2-fluoro-6-methoxyphenyl)-N-(5-(((1r,4r)-4-hydroxycyclohexyl)methoxy)-1,3,4-thiadiazol-2-yl)-3-methylimidazo(1,5-a)pyridine-6-carboxamide], with ≥ 6.70.

As for `COc1ccccc1-c1cc(C)ncc1C(=O)Nc1nnc(OCc2ccc3c(n2)CCNC3)s1` [Example 71, 4-(2-methoxyphenyl)-6-methyl-N-(5-(5,6,7,8-tetrahydro-1,6-naphthyridin-2-ylmethoxy)-1,3,4-thiadiazol-2-yl)pyridine-3-carboxamide], the negative-log IC50 (pIC50) was 6.00 to 6.30. With `COc1cnc(Cl)cc1-c1cc(C)ncc1C(=O)Nc1nnc(OCC2COC2)s1` [Example 164, 2′-chloro-5′-methoxy-6-methyl-N-(5-(oxetan-3-ylmethoxy)-1,3,4-thiadiazol-2-yl)-(4,4′-bipyridine)-3-carboxamide], the negative-log IC50 (pIC50) was ≥ 6.70. Regarding `COc1cnc(Cl)cc1-c1cc(C)ncc1C(=O)Nc1nnc(OC[C@@H]2CC[C@H](O)C2)s1` (single isomer, unassigned) [Example 211], the negative logarithm of the IC50 (pIC50) was ≥ 6.70. As to `COc1cnc(Cl)cc1-c1cc(C)ncc1C(=O)Nc1nnc(OCC2CCOC2)s1` (stereo in doubt) [Example 171, (S)-2′-chloro-5′-methoxy-6-methyl-N-(5-((tetrahydrofuran-3-yl)methoxy)-1,3,4-thiadiazol-2-yl)-(4,4′-bipyridine)-3-carboxamide], the negative-log IC50 (pIC50) is ≥ 6.70. Consider `COc1cnc(Cl)cc1-c1cc(C)ncc1C(=O)Nc1nnc(OCC2CCOC2C)s1` (centres unmarked) [Example 177, 2′-chloro-5′-methoxy-6-methyl-N-(5-((2-methyltetrahydrofuran-3-yl)methoxy)-1,3,4-thiadiazol-2-yl)-(4,4′-bipyridine)-3-carboxamide], for which the negative-log IC50 (pIC50) was ≥ 6.70.

Consider `COc1cccc(F)c1-c1cc(C)ncc1C(=O)Nc1nnc(OCc2ccc([C@H](C)O)cn2)s1` [Example 40, 4-(2-fluoro-6-methoxyphenyl)-N-(5-((5-((S)-1-hydroxyethyl)pyridin-2-yl)methoxy)-1,3,4-thiadiazol-2-yl)-6-methylnicotinamide], for which the pIC50 was ≥ 6.70. For the compound `COc1cnc(Cl)cc1-c1cc(C)ncc1C(=O)Nc1nnc(OC[C@H]2COC[C@@H]2C)s1` (single isomer, unassigned) [Example 268], the pIC50 is ≥ 6.70. To `COc1cccc(F)c1-c1cc(C)ncc1C(=O)Nc1nnc(OCc2cc(CO)ccn2)s1` [Example 72, 4-(2-fluoro-6-methoxyphenyl)-N-(5-((4-(hydroxymethyl)pyridin-2-yl)methoxy)-1,3,4-thiadiazol-2-yl)-6-methylnicotinamide] belongs ≥ 6.70. Take `COc1cccc(F)c1-c1cc(C)ncc1C(=O)Nc1nnc(OCc2ccc3c(n2)CCC[C@H]3O)s1` [Example 117, 4-(2-fluoro-6-methoxyphenyl)-N-(5-(((R)-5-hydroxy-5,6,7,8-tetrahydroquinolin-2-yl)methoxy)-1,3,4-thiadiazol-2-yl)-6-methylnicotinamide]: the pIC50 is ≥ 6.70. To `COc1cnc(Cl)cc1-c1cc(C)ncc1C(=O)Nc1nnc(OC[C@@H]2CO[C@@H](C)C2)s1` (single isomer, unassigned) [Example 254] belongs ≥ 6.70; to `Cc1cc(C2CCOCC2)c(C(=O)Nc2nnc(OCc3ccc(Cl)cn3)s2)cn1` [Example 18, N-(5-((5-chloropyridin-2-yl)methoxy)-1,3,4-thiadiazol-2-yl)-6-methyl-4-(tetrahydro-2H-pyran-4-yl)nicotinamide], 5.00 to 6.00. Regarding `COc1ccc(Cl)cc1-c1cc(C)ncc1C(=O)Nc1nnc(OCc2ccc([S@@](C)(=N)=O)cn2)s1` [Example 148, (S)-4-(5-chloro-2-methoxyphenyl)-6-methyl-N-(5-((5-(S-methylsulfonimidoyl)pyridin-2-yl)methoxy)-1,3,4-thiadiazol-2-yl)nicotinamide], the pIC50 was ≥ 6.70. Turning to `COc1cccc(F)c1-c1cc(C)ncc1C(=O)Nc1nnc(OCc2ccc3c(n2)OCCO3)s1` [Example 35, N-(5-(2H,3H-(1,4)dioxino(2,3-b)pyridin-6-ylmethoxy)-1,3,4-thiadiazol-2-yl)-4-(2-fluoro-6-methoxyphenyl)-6-methylpyridine-3-carboxamide], the pIC50 was ≥ 6.70.

In general, pIC50 refers to the IC50 on a negative log10 scale, so that one unit is a factor of ten.
